Assay results from US20230295201A1 (Gilead Sciences, Inc., priority 2020, published 2023).
Like-named read-outs stand apart in the source and are kept apart here.

Experiments:
Assay type in all cases: cell-based
[1] = test system: DENV2 replicon; experiment: DENV-2 Huh-7 Rep EC50 (replicon luminescence); conditions: Dengue virus, DENV2, Huh-7, 48 h, read-out: DENV-2 Huh-7 Rep EC50
Summary of the method: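 EC50 derived from luminescence dose-response, normalised to DMSO-only 0% inhibition wells, after 1.5 h with EnduRen substrate. Compounds were first exposed for 48 h at 37° C to DENV2 replicon Huh-7 cells (5,000/well).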

[2] = test system: RSV strain A2; experiment: RSV HEp-2 EC50 (infectious cytopathic cell protection assay); conditions: human respiratory syncytial virus, HEp-2 cells, RSV A2, 4 days, read-out: RSV HEp-2 EC50
Summary of the method: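 Percent inhibition of RSV-induced cytopathic effect came from remaining cell viability (CellTiter-Glo luminescence) after 4 days at 37° C. Compounds in 3-fold serial dilutions were exposed to an infectious mix of titered A2 virus and HEp-2 cells at 50,000/ml, with 0% and 100% inhibition control standards.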

[3] = test system: RSV A2; experiment: RSV NHBE EC50 (RSV A2 antiviral assay in normal human bronchial epithelial cells); conditions: human respiratory syncytial virus, 96 h, NHBE cells, RSV A2, 4 days, read-out: RSV NHBE EC50
[4] = test system: HRV16; experiment: HRV16 HELA EC50 (cytopathic effect in H1-HeLa cells)
Summary of the method: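 Read-out is luminescent cell viability (CellTiter-Glo) after 96 h of infection at 33 °C, scaled between uninfected and infected-untreated wells. Before infection with titrated virus, compounds went onto H1-HeLa cells as triplicate 3-fold dilution series.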

[5] = H1-HeLa cells, 96 h, 33° C.; read-out: HRV16 HELA EC50
[6] = 96 h, H1-HeLa cells, 33° C., read-out: HRV16 HELA EC50

Structure (SMILES)	EC50 [1] [µM]	EC50 ([2]; 96 h) [µM]	EC50 [3] [µM]	EC50 [4, 5] [µM]	EC50 ([1]; Huh-7 replicon cells, 48 hours) [µM]	EC50 ([2]; HEp-2, 96 h) [µM]	EC50 ([3]; NHBE) [µM]	EC50 [4, 6] [µM]
CCCCCCCCCCCCCCCCCCOC[C@H](COP(=O)(O)OC[C@@]1(C#N)O[C@@H](c2ccc3c(N)ncnn23)[C@H](O)[C@@H]1O)OCc1ccccc1 [Example 96, ((2R,3S,4R,5S)-5-(4-aminopyrrolo[2,1-f][1,2,4]triazin-7-yl)-2-cyano-3,4-dihydroxytetrahydrofuran-2-yl)methyl ((R)-2-(benzyloxy)-3-(octadecyloxy)propyl) hydrogen phosphate]	> 100	0.254	0.441	9.35				
CCC(CC)OC(=O)[C@H](C)NP(=O)(OC[C@@]1(C#N)O[C@@H](c2ccc3c(N)ncnn23)[C@H](O)[C@@H]1O)Oc1ccccc1 (stereo partly drawn) [Example 101, (2S)-pentan-3-yl 2-(((((2R,3S,4R,5S)-5-(4-aminopyrrolo[2,1-f][1,2,4]triazin-7-yl)-2-cyano-3,4-dihydroxytetrahydrofuran-2-yl)methoxy)(phenoxy)phosphoryl)amino)propanoate]					> 100	1.74	1.24	3.13
CCCCCCCCCCCCCCCCOCCCOP(=O)(O)OC[C@@]1(C#N)O[C@@H](c2ccc3c(N)ncnn23)[C@H](O)[C@@H]1O [Example 149, ((2R,3S,4R,5S)-5-(4-aminopyrrolo[2,1-f][1,2,4]triazin-7-yl)-2-cyano-3,4-dihydroxytetrahydrofuran-2-yl)methyl (3-(hexadecyloxy)propyl) hydrogen phosphate]	> 50	0.925	> 0.891	> 50				
CCCCCCCCCCCCOC(=O)[C@H](C)NP(=O)(OC[C@@]1(C#N)O[C@@H](c2ccc3c(N)ncnn23)[C@H](O)[C@@H]1O)Oc1ccccc1 (stereo partly drawn) [Example 191, dodecyl ((((2R,3S,4R,5S)-5-(4-aminopyrrolo[2,1-f][1,2,4]triazin-7-yl)-2-cyano-3,4-dihydroxytetrahydrofuran-2-yl)methoxy)(phenoxy)phosphoryl)-L-alaninate]					61.3	2.39	0.035	3.4
CCCCCCOC(=O)[C@H](C)NP(=O)(OC[C@@]1(C#N)O[C@@H](c2ccc3c(N)ncnn23)[C@H](O)[C@@H]1O)Oc1ccccc1 (stereo partly drawn) [Example 192, hexyl ((((2R,3S,4R,5S)-5-(4-aminopyrrolo[2,1-f][1,2,4]triazin-7-yl)-2-cyano-3,4-dihydroxytetrahydrofuran-2-yl)methoxy)(phenoxy)phosphoryl)-L-alaninate]					15.9	0.194	0.021	0.342
C[C@H](NP(=O)(OC[C@@]1(C#N)O[C@@H](c2ccc3c(N)ncnn23)[C@H](O)[C@@H]1O)Oc1cccc2ccccc12)C(=O)OC1CCCCC1 (stereo partly drawn) [Example 203, cyclohexyl ((((2R,3S,4R,5S)-5-(4-aminopyrrolo[2,1-f][1,2,4]triazin-7-yl)-2-cyano-3,4-dihydroxytetrahydrofuran-2-yl)methoxy)(naphthalen-1-yloxy)phosphoryl)-L-alaninate]					4.46	0.031	0.018	0.072
